Results from patent publication US20060079453A1, “Hla binding peptides and their uses” (priority 2002, published 2006).
Read-outs that look alike come from different tables or passages of the source. No end group written: not given here.

Key:
Test in all cases: biochemical
Format in all cases: binding
[1] = molecular target: HLA-A*3002 (Homo sapiens, UniProt P04439, D101N/D140H/D185E/E176R/F33S/G80R/H175R/K168Q/Q94H/R138E/R41S/V100E)
[2] = molecular target: HLA-A*2301 (Homo sapiens, UniProt P04439, D101N/D140Y/D185E/E176V/E190D/F33S/G103R/G107R/H175R/I119L/I121M/I306V/K168Q/K335N/L105A/L300P/N151K/N90K/P307H/Q86E/Q94H/R106L/R138H/R89G/T104I/T345S/V100E/W191G/Y123F)
[3] = molecular target: HLA-A*0203 (Homo sapiens, UniProt P04439, A173T/D140Y/D185E/D98H/E277Q/G131W/G231S/I119V/I121R/I166T/I218V/L180W/L300P/L318F/N151K/N90K/P208A/P217A/Q86G/Q94H/R138H/R169H/T345S)
[4] = molecular target: HLA-A*6802 (Homo sapiens, UniProt P04439, A269V/D140Y/D185E/E176V/E277Q/E87N/F33Y/G231S/I121R/I166T/I218V/L180W/L300P/L318F/N151K/P208A/P217A/Q86R/R138H/R169H/S129P/T345S/V36M)
[5] = molecular target: HLA-A*0202 (Homo sapiens, UniProt P04439, D140Y/D185E/D98H/E176V/E277Q/G131W/G231S/I119L/I121R/I166T/I218V/L180W/L300P/L318F/N151K/N90K/P208A/P217A/Q67R/Q86G/Q94H/R138H/R169H/T345S)
[6] = molecular target: HLA-A*0201 (Homo sapiens, UniProt P04439, D140Y/D185E/D98H/E176V/E277Q/G131W/G231S/I119V/I121R/I166T/I218V/L300P/L318F/N151K/N90K/P208A/P217A/Q86G/Q94H/R138H/R169H/T345S)
[7] = molecular target: HLA-A*0206 (Homo sapiens, UniProt P04439, D140Y/D185E/D98H/E176V/E277Q/F33Y/G131W/G231S/I119V/I121R/I166T/I218V/L300P/L318F/N151K/N90K/P208A/P217A/Q86G/Q94H/R138H/R169H/T345S)
[8] = A*0203 binding affinity (expressed as an IC50)
[9] = A*6802 binding affinity (expressed as an IC50)
[10] = A*0202 binding affinity (expressed as an IC50)
[11] = A*0201 binding affinity (expressed as an IC50)
[12] = A*0206 binding affinity (expressed as an IC50)

Molecule | IC50 [3, 8] [nM] | IC50 [4, 9] [nM] | IC50 [5, 10] [nM] | IC50 [6, 11] [nM] | IC50 [7, 12] [nM] | IC50 [3] [nM] | IC50 [4] [nM] | IC50 [5] [nM] | IC50 [6] [nM] | IC50 [7] [nM] | other results
CC[C@H](C)[C@H](N)C(=O)N[C@@H](CCSC)C(=O)N[C@H](C(=O)N[C@@H](CC(C)C)C(=O)N[C@@H](CO)C(=O)N[C@@H](Cc1ccccc1)C(=O)N[C@@H](CC(C)C)C(=O)N[C@@H](Cc1ccccc1)C(=O)O)C(C)C |  |  |  |  |  |  |  |  |  |  | IC50 [1]: 30000 nM; IC50 [2]: 7.5 nM
CC(C)C[C@H](NC(=O)[C@@H](N)CCCNC(=N)N)C(=O)N[C@@H](C)C(=O)N[C@@H](Cc1c[nH]cn1)C(=O)N[C@@H](CCC(=O)O)C(=O)N[C@H](C(=O)NCC(=O)N[C@@H](Cc1c[nH]c2ccccc12)C(=O)N[C@@H](CCCCN)C(=O)N[C@@H](Cc1ccc(O)cc1)C(=O)O)C(C)C |  |  |  |  |  |  |  |  |  |  | IC50 [1]: 3.8 nM; IC50 [2]: 4630 nM
CC(C)C[C@H](NC(=O)[C@@H](N)CO)C(=O)N[C@@H](Cc1ccccc1)C(=O)N[C@H](C(=O)N[C@@H](CO)C(=O)N[C@@H](CC(N)=O)C(=O)N[C@@H](Cc1c[nH]cn1)C(=O)N[C@@H](C)C(=O)N[C@@H](Cc1ccc(O)cc1)C(=O)O)C(C)C |  |  |  |  |  |  |  |  |  |  | IC50 [1]: 1.1 nM; IC50 [2]: 30300 nM
AYSSWMYSY |  |  |  |  |  |  |  |  |  |  | IC50 ([1]; Binding affinity to A*3002 (expressed as an IC50)): 4.9 nM; IC50 [2]: 21 nM
DFFLKSKFNI |  |  |  |  |  |  |  |  |  |  | IC50 [2]: 304 nM
FMGVIYIMI | 26 | 14500 | 2.1 | 13 | 98 |  |  |  |  |  | 
FYSKVSEF |  |  |  |  |  |  |  |  |  |  | IC50 ([1]; A*3002 binding affinity (IC50)): 66700 nM; IC50 [2]: 18 nM
GLGAVSRDL |  |  |  |  |  | 1730 | > 16700 | 436 | 18700 | > 10400 | 
GLIYSKKRQEV |  |  |  |  |  | 152 | > 14300 | 57 | 8970 | > 8560 | 
GVLGWSPQV |  |  |  |  |  | 389 | 9430 | 157 | 22 | 28 | 
IISAVVGFL | 4.8 | 77 | 1 | 747 | 234 |  |  |  |  |  | 
IISAVVGIV | 20 | 390 | 15 | 712 | 958 |  |  |  |  |  | 
ILAEAMSQA |  |  |  |  |  | 1.1 | 253 | 1 | 29 | 8.6 | 
ILWQVDRM |  |  |  |  |  | 3000 | > 19500 | 67 | 1750 | 11300 | 
KISAVVGIL | 60 | 4950 | 42 | 6240 | 1750 |  |  |  |  |  | 
KITPLCVTL | 528 | 883 | 36 | 461 | 59 |  |  |  |  |  | 
KLTPFCVTL |  |  |  |  |  | 28 | 11800 | 0.37 | 87 | 78 | 
KLTPLCVSL | 240 | 5950 | 2.4 | 67 | 16 |  |  |  |  |  | 
LIFHFFLFLL | 3170 | 460 | 1470 | 200 | 1560 |  |  |  |  |  | 
LLGPGPGV | 123 | 5620 | 49 | 25 | 93 |  |  |  |  |  | 
LLLPPLERLTL |  |  |  |  |  | 9010 | > 12800 | 2610 | 34 | 45 | 
LLWQPIPV | 9.9 | 32900 | 2440 | 137 | 4250 |  |  |  |  |  | 
LQLPPLERLTV |  |  |  |  |  | 6270 | > 61100 | 4540 | 159 | 52 | 
LTFGWCFKV |  |  |  |  |  | 1170 | 9.7 | 33 | 15 | 187 | 
MLLSVPLLL | 41 | 24600 | 79 | 9 | 8.4 |  |  |  |  |  | 
MMIMIKFMGV | 25 | 39 | 19 | 123 | 109 |  |  |  |  |  | 
MTGNPPVPV | 23 | 0.84 | 158 | 2020 | 35 |  |  |  |  |  | 
MTGNPSIPV |  |  |  |  |  | 0.43 | 0.57 | 1.1 | 16 | 257 | 
